Tests used:
SK-N-MC = test: Drug uptake in human SK-N-MC cells at 111 kBq after 2 hrs by […]; format: ADME, cell-based
[1] = target: T1, Thymidine kinase, cytosolic (Homo sapiens) (UniProt P04183); test: Inhibition of human recombinant TK1 phosphorylation after 15 mins by pyruvate kinase/lactate dehydrogenase coupled assay relative to thymidine
T1 sequence (whole entry): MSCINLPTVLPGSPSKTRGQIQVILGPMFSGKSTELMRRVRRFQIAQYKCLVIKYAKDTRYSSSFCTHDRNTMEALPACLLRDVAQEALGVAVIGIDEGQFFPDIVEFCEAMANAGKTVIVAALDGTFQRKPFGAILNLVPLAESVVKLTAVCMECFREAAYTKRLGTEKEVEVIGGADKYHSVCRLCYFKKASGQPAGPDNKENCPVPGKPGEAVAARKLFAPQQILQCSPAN

**Q.** With `[3H]C([3H])([3H])c1cn([C@H]2C[C@H](O)[C@@H](CO)O2)c(=O)[nH]c1=O` as the molecule, how does the Drug uptake (SK-N-MC) read?
**A.** 29 %ID/mg/ml

**Q.** For `C#CCn1c(=O)c(C)cn([C@H]2C[C@H](O)[C@@H](CO)O2)c1=O`, which inhibition [1] is on record?
**A.** 86.7%
